Reference: patent publication US20220288010A1, “METHODS FOR REDUCING REWARDING EFFECTS OF MORPHINE WITHOUT AFFECTING ITS ANALGESIC EFFECTS” (The Board of Trustees of the Leland Stanford Junior …, priority 2019, published 2022)
“Also recorded” adds a separate entry of the source.

Assays:
[1] = test system: mice; assay: tail flick test, morphine analgesia, cumulative dose response of morphine; type: in vivo
[2] = test system: mice; assay: morphine conditioned place preference (CPP) paradigm to assess morphine reward; type: in vivo
From the text: The ability of a MAGL inhibitor to attenuate the rewarding effect of an opioid can also be assessed in animal models. For example, a morphine conditioning place preference (CPP) paradigm can be used as a preclinical model to measure reward, in which mice are conditioned to associate a particular chamber with the rewarding effects of morphine (see, e.g., Example 1). Reward, e.g., as measured by a preference for the morphine chamber, can be assessed at different phases of morphine conditioning, for example to assess if a MAGL inhibitor decreases or inhibits the establishment of the rewarding effect or of its maintenance or expression.
Endocannabinoid signaling is primarily regulated by MAGL and FAAH, the two enzymes responsible for catabolizing the endogenous cannabinoids, 2-AG and anandamide. Although some studies have shown that inhibition of these enzymes reduces certain aspects of morphine withdrawal, no studies exist that have examined their role in morphine reward. We utilized the morphine conditioned place preference (CPP) paradigm, to assess morphine reward, in which mice are conditioned to associate a particular chamber with the rewarding effects of morphine (FIG. 1A). […] To test the effect of systemic blockade of MAGL with the pharmacological inhibitor JZL-184 on morphine reward, on Day 1 mice underwent a baseline test, on Day 2-5 mice were conditioned to morphine wherein they received an intraperitoneal (i.p.) injection of JLZ-184 (10 mg/kg, i.p.), two hours prior to each morphine conditioning session (FIG. 1B). On day 6, mice were tested for morphine preference. […] Next, to test if this effect of MAGL inhibition was selective for the conditioning phase or potentially could also alter the expression of the morphine preference, mice were injected with JLZ-184 two hours prior to the Day 6 morphine preference test, in the absence of morphine (FIG. 1D).
In order to expand our findings, we decided to test the (R)-3t compound, a reversible MAGL inhibitor, in morphine conditioned place preference. As with JZL-184, (R)-3t (20 mg/kg) was given before each morphine conditioning session (FIG. 3A).
To test the effect of inhibiting the enzyme FAAH on the rewarding effects of morphine, we tested the effect of the FAAH inhibitor PF-3845 in morphine conditioned place preference. […] We additionally found no effect of PF-3845 (10 mg/kg, i.p.) on morphine-induced analgesia and morphine tolerance using the tail-flick test (FIGS. 4E-G).
Inhibition of the MAGL enzyme with JZL-184 results in lower metabolization of the endogenous cannabinoid 2-AG. This implies higher availability of this endogenous cannabinoid receptor 1 (CB1) ligand to activate CB1 receptors. Next, we tested the effect of activating the CB1 receptor with the exogenous CB1 ligand, THC, on morphine conditioned place preference. Mice were systemically administered THC prior to each morphine conditioning session (FIG. 5A).

[3] = test system: mice; assay: tail flick test, tolerance to morphine's analgesic effects; type: in vivo
Protocol: Chronic morphine treatment can result in tolerance to its analgesic effects; therefore, to test if morphine tolerance was affected by MAGL inhibition, for four consecutive days mice received a morning and afternoon injection of JZL-184 (10 mg/kg, i.p.), two hours prior to an injection of morphine (10 mg/kg), and antinociception was assessed every other day in the tail flick test.

[4] = test system: monoacylglycerol lipase (MAGL); details: cited from earlier work
[5] = test system: nucleus accumbens (NAc) activity; assay: in vivo fiber photometry (GCaMP6s) recording during morphine CPP; details: JZL-184 treated mice
From the text: FIGS. 7A-7D. MAGL inhibition reduces nucleus accumbens (NAc) activity during morphine CPP. FIG. 7A: Experimental timeline for fiber photometry recording during […]. FIG. 7B: Brain schematic with an optic fiber implanted into the NAc expressing the calcium indicator GCaMP6s and a representative image of the GCaMP6s expressing in the NAc (aca=anterior commissure, AcbC=nucleus accumbens core, AcbSh=nucleus accumbens shell). FIG. 7C: Graph of the quantification of the mean signal (representative of NAc activity) around zone entry into the morphine- or saline-paired chambers of vehicle- or JZL-184-pretreated animals. (dF/F (%) data for the average signal +/− 5s around zone entries; vehicle-treated animals, morphine vs saline chamber *p<0.05, n=6; JZL-184 treated animals, morphine vs saline p=0.054, n=9). FIG. 7D: Graph of the quantification of the onset of approach to morphine- or saline-paired chambers (dF/F (%) data for the average signal +/− 5s of the onset of approaching a chamber; vehicle-treated animals, morphine vs saline chamber *p<0.05, n=6; JZL-184 treated animals, morphine vs saline p=0.39, n=9).
The rewarding effects of morphine have been linked to neural activity of the brain region the nucleus accumbens. […]

[6] = test system: mice; assay: cocaine conditioned place preference (CPP); type: in vivo; details: JZL-184 prior to each cocaine conditioning session
From the text: Although drugs of abuse exert their rewarding effects through similar pathways and brain structures, they use different mechanisms. […] Mice were pretreated with JZL-184 prior to each cocaine conditioning session (FIG. 6A).

[7] = pretreatment with PF-3845 10 mg/kg i.p.

O=C(Nc1cccnc1)N1CCC(Cc2cccc(Oc3ccc(C(F)(F)F)cn3)c2)CC1 [PF-3845]
morphine-induced analgesia [1, 7]: no effect; also recorded: are not affected
acquisition of morphine CPP ([2]; PF-3845 10 mg/kg i.p. before each conditioning session, 10 mg/kg): had no effect on acquisition of morphine conditioned place preference; also recorded: does not alter acquisition of morphine CPP
expression of morphine CPP ([2]; PF-3845 10 mg/kg i.p. before the morphine CPP expression test, 10 mg/kg): had no effect; also recorded: does not alter
morphine tolerance [3, 7]: no effect; also recorded: are not affected

Cc1ncccc1-c1cc(F)cc(N2C[C@H](N3CCN(c4ncccn4)CC3)CC2=O)c1 [(R)-3t, (4R)-1-[3-fluoro-5-(2-methylpyridin-3-yl)phenyl]-4-[4-(pyrimidin-2-yl)piperazin-1-yl]pyrrolidin-2-one]
acquisition of morphine CPP (morphine reward) ([2]; (R)-3t 20 mg/kg before each morphine conditioning session): resulted in a lack of morphine reward; also recorded: abolishes the rewarding effects of morphine; also recorded: abolishes acquisition of CPP

O=C(Oc1ccc([N+](=O)[O-])cc1)N1CCC(C(O)(c2ccc3c(c2)OCO3)c2ccc3c(c2)OCO3)CC1 [JZL-184, (4-nitrophenyl) 4-[bis(1,3-benzodioxol-5-yl)-hydroxymethyl]piperidine-1-carboxylate]
morphine-induced analgesia ([1]; JZL-184 10 mg/kg i.p. two hours before morphine 0.1-10 mg/kg cumulative, tested 30 minutes after each dose): did not alter the analgesic effects of morphine; also recorded: does not affect morphine-induced analgesia
acquisition of morphine CPP (morphine reward) ([2]; JZL-184 10 mg/kg i.p. two hours prior to each morphine conditioning session (Day 2-5), preference test Day 6, 10 mg/kg): abolishes morphine reward; also recorded: abolishes the rewarding effects of morphine; also recorded: abolished morphine CPP
expression of morphine CPP ([2]; JZL-184 two hours prior to the Day 6 morphine preference test, in the absence of morphine): does not alter the expression of morphine CPP
expression of morphine CPP ([2]; JZL-184 two hours prior to the Day 6 morphine preference test, in the absence of morphine, listed as JLZ-184): had no effect on morphine reward
selectivity for MAGL over other brain serine hydrolases, including FAAH [4]: highly selective for MAGL over other brain serine hydrolases
higher nucleus accumbens activity when approaching the morphine-paired chamber ([5]; onset of approach (FIG. 7D)): abolished
increase in nucleus accumbens activity prior to entry into the morphine-paired chamber vs saline-paired chamber ([5]; signal around zone entry (FIG. 7C)): absent
acquisition of cocaine CPP (cocaine reward) [6]: did not have any effect on cocaine reward; also recorded: does not alter the acquisition of cocaine CPP
development of tolerance to morphine's analgesic effects ([3]; JZL-184 10 mg/kg i.p. morning and afternoon, two hours prior to morphine 10 mg/kg, four consecutive days, compared to vehicle): delayed morphine-induced tolerance; also recorded: delays the development of tolerance to morphine's analgesic effects

CCCCCc1cc(O)c2c(c1)OC(C)(C)[C@@H]1CCC(C)=C[C@@H]21 [THC, Δ^9-Tetrahydrocannabinol]
acquisition of morphine CPP (morphine reward) ([2]; THC systemically prior to each morphine conditioning session): had no effect on morphine reward; also recorded: does not alter the acquisition of morphine CPP
